Source: US10407445B2, “Hepatitis C virus inhibitors” (ENANTA PHARMACEUTICALS, INC., priority 2013, dated 2019)

Assays:
Type in all cases: cell-based
[1] = system: GT1a replicon encoding NS5A mutation Q30R; assay: Transient replication assay, GT1a replicon with NS5A mutation Q30R; details: Hepatitis C virus, read-out: EC50 1a Q30R
HCV GT 1a replicon = assay: HCV replicon assay, stable GT 1a replicon (Renilla luciferase); details: Hepatitis C virus, GT1A; HCV GT 1a replicon, 72 h; read-out: EC50 1a
Experimental: The activity of compounds was determined against HCV replicons representing genotypes (GT) 1a, 1b, 2a, and 3a. To generate stable Huh-7.5-based cell lines, HCV replicons were engineered to express the Renilla luciferase reporter (hRluc) fused to the neomycin phosphotransferase (Neo) gene. GT2a and GT3a HCV replicons were based on the JFH-1 subgenomic replicon (Kato et al. 2003 Gastroenterology, 125:1808-1817), in which the NS5A gene was replaced with that of strains J6 and S52 (GT2a and G3a, respectively). The activity of compounds against GT1a replicons encoding NS5A mutations (M28T, Q30R, L31M, Y93C, and Y93H) was also determined in a transient replication assay. The parental GT1a and GT2a replicons (pH/SG-Neo(L+I) and pSG-Neo-JFH1, respectively) were licensed from Apath LLC (Saint Louis, Mo.). The parental GT 1b replicon (pFKi389lucubineo_3_3′_ET) was licensed from ReBLikon GmbH (Germany). HCV replicons were constructed by standard molecular biology techniques described below. All replicon constructs were verified by restriction enzyme digestion and DNA sequencing.
pH/SG-Neo(L+I) was modified to add the firefly luciferase reporter gene and additional adaptive mutations by replacing the pH/SG-Neo(L+I) NS3-NS5A coding region with the corresponding sequence of pH77-S, creating pH/SG-lucubineo-H77S as described (Borawski J et al. 2009, J Virol 83: 10058-10074). Subsequently, the firefly luciferase-Neo cassette was replaced with the hRluc-Neo cassette. To create a unique cloning site, the NotI restriction site in NS5B was removed using QuickChange II XL Site-Directed Mutagenesis Kit (Agilent) and the following primers: NotI KO Fwd 5′-CTCAAACTCACTCCAATAGCTGCCGCTGGCCGGCTGGAC-3′(G→T mutation removing NotI site underlined) (SEQ. ID No. 1) and NotI KO Rev 5′-GTCCAGCGGGCCAGCGGCAGCTATTGGAGTGAGTTTGAG-3′(C→A mutation removing NotI site underlined) (SEQ. ID No. 2). The resulting vector, pH/SG-lucubineo-H775-NotIKO, was sequenced to confirm the NS5B gene. The hRluc-Neo cassette was PCR amplified from pF9 cytomegalovirus (CMV) hRluc-Neo Flexi(R) (Promega) using Accuprime Super Mix II (Invitrogen) and the following primers, which introduce restriction sites: […]
The amplification product was subcloned into pCR2.1-TOPO (Invitrogen). The resulting plasmid was digested with AscI and NotI, and the excised hRluc-Neo fragment was ligated using the Promega Rapid Ligation Kit (Promega) into pH/SG-lucubineo-H775-NotIKO digested with the same enzymes.
Stable HCV replicon cell lines were grown in complete media (Dulbecco's modified Eagle medium [DMEM], 2 mM L-glutamine, 0.1 mM essential amino acids, 1 mM sodium pyruvate, 10% heat inactivated fetal bovine serum) with the addition 500 μg/ml […] (G418). Huh7-lunet cells were maintained in the same medium without the addition of G418. Cells were routinely passaged at a dilution of 1:4 two times a week. The assay medium for both luciferase reporter HCV replicon and cytotoxicity assays used phenol red-free DMEM and lacked G418. For each stable replicon assay, a sixteen point half-log dilution series of compound was stamped (0.5 ul compound per well) into three replica 384-well plates, to which cells were added directly (4000 cells/well). For the transient replication assay, Huh7-lunet cells in ice-cold phosphate buffered saline (PBS) were electroporated (BioRad electroporator; 950 uF, 270V) with 10 ug purified in vitro transcribed HCV replicon RNA, followed by resuspension in complete media and plating (8000 cells/well) into compound stamped 384-well plates. Luciferase activity of compound-treated cells was measured relative to DMSO-treated cells after 72 h incubation using RENILLA-GLO™ Luciferase Assay (Promega). Cytotoxicity (CC50) in the GT1b replicon cell line was analyzed using CELL TITER-GLO™ (Promega). […]

[2] = system: GT1a replicon encoding NS5A mutation Y93C; assay: Transient replication assay, GT1a replicon with NS5A mutation Y93C; details: Hepatitis C virus, read-out: EC50 1a Y93C

COC(=O)N[C@H](C(=O)N1C[C@@]2(CCOC2)C[C@H]1c1ncc(-c2ccc(-c3ccc4c(ccc5nc([C@@H]6CCCN6C(=O)[C@@H](NC(=O)OC)C(C)C)[nH]c54)c3)cc2)[nH]1)C(C)C [Compound 50]
EC50 [1]: 0.4 nM
EC50 (HCV GT 1a replicon): 0.014 nM
EC50 [2]: 0.4 nM

COC(=O)N[C@H](C(=O)N1C[C@]2(CCCOC2)C[C@H]1c1ncc(-c2ccc(-c3ccc4c(ccc5nc([C@@H]6C[C@@H]7CCC[C@@H]7N6C(=O)[C@@H](NC(=O)OC)C(C)C)[nH]c54)c3)cc2)[nH]1)C(C)C [Compound 16]
EC50 [1]: 0.02 nM
EC50 (HCV GT 1a replicon): 0.009 nM
EC50 [2]: 0.3 nM

COC(=O)N[C@H](C(=O)N1C[C@]2(CCCOC2)C[C@H]1c1nc2ccc3cc(-c4ccc5c(ccc6nc([C@@H]7C[C@@H]8COC[C@@H]8N7C(=O)[C@@H](NC(=O)OC)C(C)C)[nH]c65)c4)ccc3c2[nH]1)C(C)C [Compound 36]
EC50 [1]: 0.04 nM
EC50 (HCV GT 1a replicon): 0.029 nM
EC50 [2]: 0.06 nM

COC(=O)N[C@H](C(=O)N1C[C@]2(CCCO2)C[C@H]1c1ncc(-c2ccc(-c3ccc4c(ccc5nc([C@@H]6CCCN6C(=O)[C@@H](NC(=O)OC)C(C)C)[nH]c54)c3)cc2)[nH]1)C(C)C [Example 81]
EC50 [1]: 0.05 nM
EC50 (HCV GT 1a replicon): 0.015 nM
EC50 [2]: 0.2 nM

COC(=O)N[C@H](C(=O)N1CCC[C@H]1c1ncc(-c2ccc(-c3ccc4c(ccc5nc([C@@H]6C[C@]7(CCOC7)CN6C(=O)[C@@H](NC(=O)OC)C(C)C)[nH]c54)c3)cc2)[nH]1)C(C)C [Compound 51]
EC50 [1]: 0.2 nM
EC50 (HCV GT 1a replicon): 0.011 nM
EC50 [2]: 0.07 nM

COC(=O)N[C@H](C(=O)N1CC2(CC2)C[C@H]1c1ncc(-c2ccc(-c3ccc4c(ccc5nc([C@@H]6C[C@@]7(CCCOC7)CN6C(=O)[C@@H](NC(=O)OC)C(C)C)[nH]c54)c3)cc2)[nH]1)C(C)C [Compound 8]
EC50 [1]: 0.1 nM
EC50 (HCV GT 1a replicon): 0.01 nM
EC50 [2]: 0.1 nM

COC(=O)N[C@H](C(=O)N1C[C@]2(CCCOC2)C[C@H]1c1ncc(-c2ccc(-c3ccc4c(ccc5nc([C@@H]6C[C@@H]7CCCC[C@@H]7N6C(=O)[C@@H](NC(=O)OC)C(C)C)[nH]c54)c3)cc2)[nH]1)C(C)C [Compound 29]
EC50 [1]: 0.01 nM
EC50 (HCV GT 1a replicon): 0.006 nM
EC50 [2]: 0.1 nM

COC(=O)N[C@H](C(=O)N1C[C@]2(CCCOC2)C[C@H]1c1ncc(-c2ccc(-c3ccc4c(ccc5nc([C@@H]6CCCN6C(=O)[C@@H](NC(=O)OC)C(C)C)[nH]c54)c3)cc2)[nH]1)C(C)C [Compound 47]
EC50 [1]: 0.1 nM
EC50 (HCV GT 1a replicon): 0.015 nM
EC50 [2]: 0.3 nM

COC(=O)N[C@H](C(=O)N1C[C@]2(CCCOC2)C[C@H]1c1nc2ccc3cc(-c4ccc5c(ccc6nc([C@@H]7C[C@@H]8CCC[C@@H]8N7C(=O)[C@@H](NC(=O)OC)C(C)C)[nH]c65)c4)ccc3c2[nH]1)C(C)C [Compound 9]
EC50 [1]: 0.01 nM
EC50 (HCV GT 1a replicon): 0.007 nM
EC50 [2]: 0.03 nM

COC(=O)N[C@H](C(=O)N1[C@H](c2nc3ccc4cc(-c5ccc(-c6cnc([C@@H]7C[C@@]8(CCCOC8)CN7C(=O)[C@H](NC(=O)OC)C7C[C@@H](C)O[C@H](C)C7)[nH]6)cc5)ccc4c3[nH]2)C[C@@H]2CCCC[C@@H]21)C(C)C (stereo in doubt) [Compound 39]
EC50 [1]: 0.05 nM
EC50 (HCV GT 1a replicon): 0.214 nM
EC50 [2]: 4 nM

COC(=O)N[C@H](C(=O)N1C[C@]2(CCCOC2)C[C@H]1c1ncc(-c2ccc3cc4cc(-c5cnc([C@@H]6C[C@@H]7CCCC[C@@H]7N6C(=O)[C@@H](NC(=O)OC)C(C)C)[nH]5)ccc4cc3c2)[nH]1)C(C)C [Compound 13]
EC50 [1]: 0.01 nM
EC50 (HCV GT 1a replicon): 0.036 nM
EC50 [2]: 0.3 nM

COC(=O)N[C@H](C(=O)N1CCC[C@H]1c1ncc(-c2ccc(-c3ccc4c(c3)OCc3nc([C@@H]5C[C@@]6(CCCOC6)CN5C(=O)[C@@H](NC(=O)OC)C(C)C)[nH]c3-4)cc2)[nH]1)C(C)C [Compound 33]
EC50 [1]: 0.2 nM
EC50 (HCV GT 1a replicon): 0.027 nM
EC50 [2]: 0.1 nM

COC(=O)N[C@H](C(=O)N1C[C@]2(CCCOC2)C[C@H]1c1nc2ccc3cc(-c4ccc5c(ccc6nc([C@@H]7C[C@@H]8C[C@@H]8N7C(=O)[C@@H](NC(=O)OC)C(C)C)[nH]c65)c4)ccc3c2[nH]1)C(C)C [Compound 21]
EC50 [1]: 0.1 nM
EC50 (HCV GT 1a replicon): 0.02 nM
EC50 [2]: 0.09 nM

COC(=O)N[C@H](C(=O)N1C[C@]2(CCCOC2)C[C@H]1c1ncc(-c2ccc(-c3ccc4c(ccc5nc([C@@H]6C[C@@H]7COC[C@@H]7N6C(=O)[C@@H](NC(=O)OC)C(C)C)[nH]c54)c3)cc2)[nH]1)C(C)C [Compound 35]
EC50 [1]: 0.07 nM
EC50 (HCV GT 1a replicon): 0.028 nM
EC50 [2]: 0.4 nM

COC(=O)N[C@H](C(=O)N1C[C@]2(CCOC2)C[C@H]1c1ncc(-c2ccc(-c3ccc4c(ccc5nc([C@@H]6CCCN6C(=O)[C@@H](NC(=O)OC)C(C)C)[nH]c54)c3)cc2)[nH]1)C(C)C [Compound 26]
EC50 [1]: 0.8 nM
EC50 (HCV GT 1a replicon): 0.025 nM
EC50 [2]: 0.8 nM

COC(=O)N[C@H](C(=O)N1CC2(CCOCC2)C[C@H]1c1ncc(-c2ccc(-c3ccc4c(ccc5nc([C@@H]6CCCN6C(=O)[C@@H](NC(=O)OC)C(C)C)[nH]c54)c3)cc2)[nH]1)C(C)C [Example 83]
EC50 [1]: 1 nM
EC50 (HCV GT 1a replicon): 0.029 nM
EC50 [2]: 1 nM

COC(=O)N[C@H](C(=O)N1C[C@]2(CCCOC2)C[C@H]1c1ncc(-c2ccc(-c3ccc(-c4cnc([C@@H]5C[C@@H]6CCC[C@@H]6N5C(=O)[C@@H](NC(=O)OC)C(C)C)[nH]4)cc3)cc2)[nH]1)C(C)C [Compound 37]
EC50 [1]: 0.02 nM
EC50 (HCV GT 1a replicon): 0.008 nM
EC50 [2]: 1 nM

COC(=O)N[C@H](C(=O)N1C[C@]2(CCCOC2)C[C@H]1c1ncc(-c2ccc3c(c2)COc2cc(-c4cnc([C@@H]5C[C@@H]6CCCC[C@@H]6N5C(=O)[C@@H](NC(=O)OC)C(C)C)[nH]4)ccc2-3)[nH]1)C(C)C [Compound 15]
EC50 [1]: 0.003 nM
EC50 (HCV GT 1a replicon): 0.008 nM
EC50 [2]: 0.2 nM

COC(=O)N[C@H](C(=O)N1CC2(CC2)C[C@H]1c1nc2ccc3cc(-c4ccc5c(ccc6nc([C@@H]7C[C@@]8(CCCOC8)CN7C(=O)[C@@H](NC(=O)OC)C(C)C)[nH]c65)c4)ccc3c2[nH]1)C(C)C [Compound 7]
EC50 [1]: 0.03 nM
EC50 (HCV GT 1a replicon): 0.009 nM
EC50 [2]: 0.02 nM

COC(=O)N[C@H](C(=O)N1C[C@]2(CCCOC2)C[C@H]1c1ncc(-c2ccc(-c3ccc4c(c3)OCc3nc([C@@H]5C[C@@H]6CCCC[C@@H]6N5C(=O)[C@@H](NC(=O)OC)C(C)C)[nH]c3-4)cc2)[nH]1)C(C)C [Compound 42]
EC50 [1]: 0.05 nM
EC50 (HCV GT 1a replicon): 0.006 nM
EC50 [2]: 0.6 nM

COC(=O)N[C@H](C(=O)N1C[C@]2(CCCOC2)C[C@H]1c1ncc(-c2ccc(-c3ccc(-c4cnc([C@@H]5C[C@@H]6CCCC[C@@H]6N5C(=O)[C@@H](NC(=O)OC)C(C)C)[nH]4)cc3)cc2)[nH]1)C(C)C [Compound 32]
EC50 [1]: 0.04 nM
EC50 (HCV GT 1a replicon): 0.007 nM
EC50 [2]: 0.5 nM

COC(=O)N[C@H](C(=O)N1C[C@]2(CCCOC2)C[C@H]1c1ncc(-c2ccc(-c3ccc4c(ccc5nc([C@@H]6C[C@H]7C[C@H]7N6C(=O)[C@@H](NC(=O)OC)C(C)C)[nH]c54)c3)cc2)[nH]1)C(C)C [Compound 18]
EC50 [1]: 0.05 nM
EC50 (HCV GT 1a replicon): 0.007 nM
EC50 [2]: 0.2 nM

COC(=O)N[C@H](C(=O)N1C[C@]2(CCCOC2)C[C@H]1c1nc2ccc3cc(-c4ccc(-c5cnc([C@@H]6C[C@H]7C[C@H]7N6C(=O)[C@@H](NC(=O)OC)C(C)C)[nH]5)cc4)ccc3c2[nH]1)C(C)C [Compound 5]
EC50 [1]: 0.05 nM
EC50 (HCV GT 1a replicon): 0.008 nM
EC50 [2]: 0.06 nM
